Experimental data: patent publication US8809333B2, “Imidazole, pyrazole, and triazole derivatives useful as antibacterial agents” (Pfizer Inc., priority 2011, dated 2014)
≈ marks a conversion by molar mass, not a printed value.

Experiments:
[1] = tested on: Pseudomonas aeruginosa UI-18: Wild-type (PA-7); assay: MIC determination (CLSI), PA-7; assay type: cell-based; details: Pseudomonas aeruginosa UI-18 wild-type; overnight incubation; lower of duplicate values; read-out: PA-7 (MIC)
Procedure, shortened: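 Broth dilution MIC per CLSI M7-A8, using 2-fold compound dilutions incubated overnight; MIC is the lowest concentration with no visible growth versus the drug-free control. Run in duplicate, lower value reported when within 2-fold. Control organisms and reference compounds were included for QC.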

[2] = biological target: T1, Pseudomonas aeruginosa LpxC enzyme (Pseudomonas aeruginosa, UniProt P47205); assay: IC50 assay, LpxC enzyme from P. aeruginosa (BioTrove RapidFire mass spectrometry); assay type: biochemical; details: P. aeruginosa LpxC enzyme 0.1 nM, 25° C., 1 hour, pH 8.0; read-out: PA: IC50
T1 construct: made in house; host or cells: E. coli
T1 sequence (P47205 1-303): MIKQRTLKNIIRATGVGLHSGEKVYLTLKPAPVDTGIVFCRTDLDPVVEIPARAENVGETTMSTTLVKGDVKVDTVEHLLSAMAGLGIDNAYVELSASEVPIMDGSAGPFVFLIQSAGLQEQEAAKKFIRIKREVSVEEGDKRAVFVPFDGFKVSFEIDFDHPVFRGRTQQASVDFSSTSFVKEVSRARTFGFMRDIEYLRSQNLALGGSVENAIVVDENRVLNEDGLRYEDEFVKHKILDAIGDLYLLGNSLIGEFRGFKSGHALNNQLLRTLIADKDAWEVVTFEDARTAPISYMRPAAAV
Procedure, shortened: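 P. aeruginosa LpxC reaction run 1 hour, stopped with 1 N HCl, and substrate-to-product conversion quantified by RapidFire mass spectrometry. IC50 calculated from percent conversion using a no-enzyme control.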

[3] = tested on: Klebsiella pneumoniae: Ciprofloxacin-resistant isolate, expresses ESBL, clinical isolate (KP-3700); assay: MIC determination (CLSI), KP-3700; assay type: cell-based; details: overnight incubation, lower of duplicate values
Procedure, shortened: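 Broth dilution MIC per CLSI M7-A8 against the ciprofloxacin-resistant, ESBL-expressing clinical isolate, 2-fold concentration steps, overnight incubation, visual read of lowest growth-inhibiting concentration. Tested in duplicate; lower value reported when within 2-fold; control organisms and reference compounds required within range.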

[4] = tested on: Acinetobacter baumannii/haemolyticus: Multidrug-resistant clinical isolate (AB-3167); assay: MIC determination (CLSI), AB-3167; assay type: cell-based; details: Acinetobacter baumannii/haemolyticus multidrug-resistant clinical isolate; overnight incubation; lower of duplicate values; read-out: AB-3167 (MIC)
Procedure, shortened: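 Broth dilution MIC per CLSI M7-A8, 2-fold concentration steps, overnight incubation, visual read of lowest concentration inhibiting growth versus drug-free control. Tested in duplicate; lower value reported if within 2-fold, otherwise repeated; QC organisms and reference drugs required within range.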

[5] = tested on: Escherichia coli EC-1: VOGEL, mouse virulent; assay: MIC determination (CLSI), EC-1; assay type: cell-based; details: Escherichia coli, read-out: EC-1 (MIC)
Procedure, shortened: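 Broth dilution MIC per CLSI M7-A8, with 2-fold compound dilutions incubated overnight with a standard inoculum. MIC is the lowest concentration visibly inhibiting growth versus drug-free control; tested in duplicate, reporting the lower value when within 2-fold, with QC organisms and reference compounds required in range.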

Row | Structure (SMILES) | MIC [1] [µg/mL] | IC50 [2] [nM] | KP-3700 (MIC) [3] [µg/mL] | MIC [4] [µg/mL] | MIC [5] [µg/mL]
1 | Cc1cc(-c2cnn(CCC(C)(C(=O)NO)S(C)(=O)=O)c2)ccc1F (centres unmarked) [Example 52, 4-[4-(4-fluoro-3-methylphenyl)-1H-pyrazol-1-yl]-N-hydroxy-2-methyl-2-(methylsulfonyl)butanamide] | 2 (≈ 5.41 µM) | 6.93 | 64 | > 64 | 16 (≈ 43.3 µM)
2 | Cc1c(F)cccc1-c1cnn(CCC(C)(C(=O)NO)S(C)(=O)=O)c1 (centres unmarked) [Example 53, 4-[4-(3-fluoro-2-methylphenyl)-1H-pyrazol-1-yl]-N-hydroxy-2-methyl-2-(methylsulfonyl)butanamide] | 16 (≈ 43.3 µM) | 9.28 | >64.0 | > 64 | 32 (≈ 86.6 µM)
3 | CC(CCn1cc(-c2ccc(Cl)cn2)cn1)(C(=O)NO)S(C)(=O)=O (centres unmarked) [Example 54, 4-[4-(5-chloropyridin-2-yl)-1H-pyrazol-1-yl]-N-hydroxy-2-methyl-2-(methylsulfonyl)butanamide] | 16 (≈ 42.9 µM) | 6.94 | >64.0 | > 64 | > 64
4 | CC(CCn1cc(-c2ccc(F)cc2F)cn1)(C(=O)NO)S(C)(=O)=O (centres unmarked) [Example 55, 4-[4-(2,4-difluorophenyl)-1H-pyrazol-1-yl]-N-hydroxy-2-methyl-2-(methylsulfonyl)butanamide] | 2 (≈ 5.36 µM) | 2.07 | 64 | > 64 | 8 (≈ 21.4 µM)
5 | CC(CCn1cc(-c2cc(F)ccc2F)cn1)(C(=O)NO)S(C)(=O)=O (centres unmarked) [Example 56, 4-[4-(2,5-difluorophenyl)-1H-pyrazol-1-yl]-N-hydroxy-2-methyl-2-(methylsulfonyl)butanamide] | 8 (≈ 21.4 µM) | 6.75 | >64.0 | > 64 | 32 (≈ 85.7 µM)
6 | CC(CCn1cc(-c2ccc3cc[nH]c3n2)cn1)(C(=O)NO)S(C)(=O)=O (centres unmarked) [Example 57, N-hydroxy-2-methyl-2-(methylsulfonyl)-4-[4-(1H-pyrrolo[2,3-b]pyridin-6-yl)-1H-pyrazol-1-yl]butanamide] | 64 (≈ 170 µM) | 3.72 | >64.0 | > 64 | > 64
7 | CC(CCn1cc(-c2ccc3c(c2)CCO3)cn1)(C(=O)NO)S(C)(=O)=O (centres unmarked) [Example 58, 4-[4-(2,3-dihydro-1-benzofuran-5-yl)-1H-pyrazol-1-yl]-N-hydroxy-2-methyl-2-(methylsulfonyl)butanamide] | 4 (≈ 10.5 µM) | 1.17 | >64.0 | > 64 | > 64
8 | CC(CCn1cc(-c2ccc(F)c(C#N)c2)cn1)(C(=O)NO)S(C)(=O)=O (centres unmarked) [Example 59, 4-[4-(3-cyano-4-fluorophenyl)-1H-pyrazol-1-yl]-N-hydroxy-2-methyl-2-(methylsulfonyl)butanamide] | 64 (≈ 168 µM) | 11.6 | >64.0 | > 64 | > 64
9 | COc1ccc(-c2cnn(CCC(C)(C(=O)NO)S(C)(=O)=O)c2)cc1F (centres unmarked) [Example 60, 4-[4-(3-fluoro-4-methoxyphenyl)-1H-pyrazol-1-yl]-N-hydroxy-2-methyl-2-(methylsulfonyl)butanamide] | 8 (≈ 20.8 µM) | 20.1 | >64.0 | > 64 | 64 (≈ 166 µM)
10 | CC(CCn1cc(-c2ccc3c(c2)C(=O)CC3)cn1)(C(=O)NO)S(C)(=O)=O (centres unmarked) [Example 61, N-hydroxy-2-methyl-2-(methylsulfonyl)-4-[4-(3-oxo-2,3-dihydro-1H-inden-5-yl)-1H-pyrazol-1-yl]butanamide] | > 64 | 38.6 | >64.0 | > 64 | > 64
11 | CC(CCn1cc(-c2ccc3c(c2)CCC3=O)cn1)(C(=O)NO)S(C)(=O)=O (centres unmarked) [Example 62, N-hydroxy-2-methyl-2-(methylsulfonyl)-4-[4-(1-oxo-2,3-dihydro-1H-inden-5-yl)-1H-pyrazol-1-yl]butanamide] | 16 (≈ 40.9 µM) | 0.754 | >64.0 | > 64 | > 64
12 | CC(CCn1cc(-c2ccc3c(c2)OCCO3)cn1)(C(=O)NO)S(C)(=O)=O (centres unmarked) [Example 63, 4-[4-(2,3-dihydro-1,4-benzodioxin-6-yl)-1H-pyrazol-1-yl]-N-hydroxy-2-methyl-2-(methylsulfonyl)butanamide] | 4 (≈ 10.1 µM) | 6.75 | >64.0 | > 64 | > 64
13 | CC(CCn1cc(-c2ccc(C#N)c(Cl)c2)cn1)(C(=O)NO)S(C)(=O)=O (centres unmarked) [Example 64, 4-[4-(3-chloro-4-cyanophenyl)-1H-pyrazol-1-yl]-N-hydroxy-2-methyl-2-(methylsulfonyl)butanamide] | 4 (≈ 10.1 µM) | 0.62 | >64.0 | > 64 | 64 (≈ 161 µM)
14 | COc1ccc(-c2cnn(CCC(C)(C(=O)NO)S(C)(=O)=O)c2)cc1OC (centres unmarked) [Example 65, 4-[4-(3,4-dimethoxyphenyl)-1H-pyrazol-1-yl]-N-hydroxy-2-methyl-2-(methylsulfonyl)butanamide] | > 64 | 93.2 | >64.0 | > 64 | > 64
15 | CC(CCn1cc(-c2ccc(C3(C#N)CC3)cc2)cn1)(C(=O)NO)S(C)(=O)=O (centres unmarked) [Example 66, 4-{4-[4-(1-cyanocyclopropyl)phenyl]-1H-pyrazol-1-yl}-N-hydroxy-2-methyl-2-(methylsulfonyl)butanamide] | 16 (≈ 39.8 µM) | 2.83 | >64.0 | > 64 | > 64
16 | Cc1ccc2cc(-c3cnn(CCC(C)(C(=O)NO)S(C)(=O)=O)c3)ccc2n1 (centres unmarked) [Example 67, N-hydroxy-2-methyl-4-[4-(2-methylquinolin-6-yl)-1H-pyrazol-1-yl]-2-(methylsulfonyl)butanamide] | 32 (≈ 79.5 µM) | 12.1 | >64.0 | > 64 | > 64
17 | CC(CCn1cc(-c2cccc(OC(F)F)c2)cn1)(C(=O)NO)S(C)(=O)=O (centres unmarked) [Example 68, 4-{4-[3-(difluoromethoxy)phenyl]-1H-pyrazol-1-yl}-N-hydroxy-2-methyl-2-(methylsulfonyl)butanamide] | 8 (≈ 19.8 µM) | 2.1 | >64.0 | > 64 | 64 (≈ 159 µM)
18 | CC(CCn1cc(-c2ccc3cnc(N)cc3c2)cn1)(C(=O)NO)S(C)(=O)=O (centres unmarked) [Example 69, 4-[4-(3-aminoisoquinolin-6-yl)-1H-pyrazol-1-yl]-N-hydroxy-2-methyl-2-(methylsulfonyl)butanamide] | > 64 | 2.57 | >64.0 | > 64 | > 64
19 | CC(CCn1cc(-c2ccc(-c3cc[nH]n3)cc2)cn1)(C(=O)NO)S(C)(=O)=O (centres unmarked) [Example 70, N-hydroxy-2-methyl-2-(methylsulfonyl)-4-{4-[4-(1H-pyrazol-3-yl)phenyl]-1H-pyrazol-1-yl}butanamide] | 32 (≈ 79.3 µM) | 4.11 | >64.0 | > 64 | 64 (≈ 159 µM)
20 | CC(CCn1cc(-c2cccc(-c3cc[nH]n3)c2)cn1)(C(=O)NO)S(C)(=O)=O (centres unmarked) [Example 71, N-hydroxy-2-methyl-2-(methylsulfonyl)-4-{4-[3-(1H-pyrazol-3-yl)phenyl]-1H-pyrazol-1-yl}butanamide] | > 64 | 5.12 | >64.0 | > 64 | > 64
21 | CC(CCn1cc(-c2ccc(-c3cnco3)cc2)cn1)(C(=O)NO)S(C)(=O)=O (centres unmarked) [Example 72, N-hydroxy-2-methyl-2-(methylsulfonyl)-4-{4-[4-(1,3-oxazol-5-yl)phenyl]-1H-pyrazol-1-yl}butanamide] | 2 (≈ 4.95 µM) | 0.373 | 16 | > 64 | 4 (≈ 9.89 µM)
22 | CC(CCn1cc(-c2ccc(-c3ccno3)cc2)cn1)(C(=O)NO)S(C)(=O)=O (centres unmarked) [Example 73, N-hydroxy-2-methyl-2-(methylsulfonyl)-4-{4-[4-(1,2-oxazol-5-yl)phenyl]-1H-pyrazol-1-yl}butanamide] | 2 (≈ 4.95 µM) | 0.35 | 16 | > 64 | 4 (≈ 9.89 µM)
